“And” between values parts separate entries of the source, which are not always exact repeats. Equal entries are not always repeated.
How the values were obtained:
[1] = target: T1, slo1 (cbv1 isoform)+β1 BK channels (Rattus norvegicus, UniProt P97678); assay: Channel activity (NPo) in POPE/POPS planar lipid bilayers, cbv1+β1; format: biochemical; conditions: for normalized NPo, time course Fig 2E: 10uM PROG
T1 construct: made in house; host or cells: CHO cells, transient transfection; sucrose-gradient membrane preparation
From the text: BK channel-forming slo1 cDNA (cbv1 isoform; AY330293) was cloned from rat cerebral artery SM cells, and inserted into pcDNA3.1 vector as described. BK β1 cDNA (KCNMB1 product; NP_011452; FJ154955) were isolated from rat cerebral artery SM cells and cloned as described. β4 cDNA (KCNMB4; NP_055320; AY028605) were generously provided by Dr. Ligia Toro. CHO cells were transiently transfected with cbv1 ± β1-, or β4-carrying pcDNA3.1 using X-tremeGENE HP (Sigma-Aldrich). Mutations to β1/4 cDNAs were conducted by Genscript, with sequences being confirmed to be >99% identical to KCNMB1 product; NP_011452 or β4 KCNMB4; NP_055320; respectively. β1/4 and mutant constructs were flag-tagged (DYKDDDDK-tag) by Genscript services for subsequent immunoprecipitation and use in microscale thermophoresis studies.
Proteins for electrophysiological recordings in artificial lipid bilayers remained untagged. Cells were transiently transfected as described above, pelleted and re-suspended on ice in 10 ml of buffer solution of the following composition (mM): 30 KCl, 2 MgCl2, 10 HEPES, 5 EGTA; pH 7.2. A membrane preparation was obtained using a sucrose gradient as described. Aliquots were stored at −80 °C. BK channel-mediated ionic current was recorded in planar lipid bilayers consisting of a POPE:POPS 3:1 (w/w) mixture. Lipid mixtures were dried under N2 and re-suspended in 25 mg/ml of n-decane BK currents following incorporation into horizontal bilayers at 300/30 mM cis/trans gradient as detailed elsewhere. Ion currents were obtained during a 10-min gap-free recording at 0 mV in the presence of 0.01, 10 μM PROG, 10 μM PROG-oxime, or vehicle control (dimethyl sulfoxide; DMSO). Currents were obtained in gap-free mode using a Warner BC-525D amplifier, low pass-filtered at 1 kHz and sampled at 5 kHz with Digidata 1550B/pCLAMP 11 (Molecular Devices). For comparison with previous data from us[16],[17],[45]–[47], studies were conducted at 20–22 °C. […]
Patch-clamp and bilayer data were analyzed using Clampfit 10.7 software (Molecular Devices). NPo was used as an index of channel steady-state activity where N = number of channels in the patch (defined as a maximal number of opening levels at Po≤1) and Po=single channel open probability. Drug-induced NPo changes were determined by comparing baseline NPo (i.e., NPo with the patch/cell perfused with bath solution) to the NPo from the same patch/cell exposed to the agent under study (DMSO/PROG/oxime) dissolved in bath solution. NPo and mean open time values were automatically calculated using Clampfit 10.7, the latter using a 50% threshold detection event.

[2] = tested on: pial arteries branching out of the MCA (C57BL/6J); assay: Cerebral artery diameter through cranial window in vivo; design: species or system mouse
Procedure: Eight-12 week-old male and female C57BL/6J mice were anesthetized with a mixture of xylazine/ketamine (12/100 mg per kg) and kept anesthetized for the duration of the experiment with subsequent ketamine doses (50 mg/kg of weight) as needed. A catheter was inserted into the carotid artery so that the infusion went straight to the brain rather than towards the thoracic cavity. An area of the skull was cleared of tissue and thinned to expose the branching arteries originating from the MCA on the side the catheter was inserted, above the zygomatic arch, between the ear and eye of the skull[19],[34]. The exposed arteries branching out from the MCA were monitored using a Leica MC170 HD microscope with a mounted camera (Leica M125 C) connected to a computer monitor. Drugs were diluted to their final concentration in sodium saline (0.9% NaCl) and administered via catheter at 0.1 ml/25 g of weight. Cranial window images before and after drug administration were acquired every 60 seconds for subsequent analysis.

T1 sequence (P97678 whole entry, canonical isoform): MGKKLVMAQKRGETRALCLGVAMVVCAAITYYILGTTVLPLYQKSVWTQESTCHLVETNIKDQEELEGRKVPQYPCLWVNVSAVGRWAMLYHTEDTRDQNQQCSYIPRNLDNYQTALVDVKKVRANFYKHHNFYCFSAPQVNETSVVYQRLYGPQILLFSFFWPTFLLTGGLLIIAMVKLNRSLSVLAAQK
T1 sequence (Q62976 1-1148 isoform Q62976-2 partner): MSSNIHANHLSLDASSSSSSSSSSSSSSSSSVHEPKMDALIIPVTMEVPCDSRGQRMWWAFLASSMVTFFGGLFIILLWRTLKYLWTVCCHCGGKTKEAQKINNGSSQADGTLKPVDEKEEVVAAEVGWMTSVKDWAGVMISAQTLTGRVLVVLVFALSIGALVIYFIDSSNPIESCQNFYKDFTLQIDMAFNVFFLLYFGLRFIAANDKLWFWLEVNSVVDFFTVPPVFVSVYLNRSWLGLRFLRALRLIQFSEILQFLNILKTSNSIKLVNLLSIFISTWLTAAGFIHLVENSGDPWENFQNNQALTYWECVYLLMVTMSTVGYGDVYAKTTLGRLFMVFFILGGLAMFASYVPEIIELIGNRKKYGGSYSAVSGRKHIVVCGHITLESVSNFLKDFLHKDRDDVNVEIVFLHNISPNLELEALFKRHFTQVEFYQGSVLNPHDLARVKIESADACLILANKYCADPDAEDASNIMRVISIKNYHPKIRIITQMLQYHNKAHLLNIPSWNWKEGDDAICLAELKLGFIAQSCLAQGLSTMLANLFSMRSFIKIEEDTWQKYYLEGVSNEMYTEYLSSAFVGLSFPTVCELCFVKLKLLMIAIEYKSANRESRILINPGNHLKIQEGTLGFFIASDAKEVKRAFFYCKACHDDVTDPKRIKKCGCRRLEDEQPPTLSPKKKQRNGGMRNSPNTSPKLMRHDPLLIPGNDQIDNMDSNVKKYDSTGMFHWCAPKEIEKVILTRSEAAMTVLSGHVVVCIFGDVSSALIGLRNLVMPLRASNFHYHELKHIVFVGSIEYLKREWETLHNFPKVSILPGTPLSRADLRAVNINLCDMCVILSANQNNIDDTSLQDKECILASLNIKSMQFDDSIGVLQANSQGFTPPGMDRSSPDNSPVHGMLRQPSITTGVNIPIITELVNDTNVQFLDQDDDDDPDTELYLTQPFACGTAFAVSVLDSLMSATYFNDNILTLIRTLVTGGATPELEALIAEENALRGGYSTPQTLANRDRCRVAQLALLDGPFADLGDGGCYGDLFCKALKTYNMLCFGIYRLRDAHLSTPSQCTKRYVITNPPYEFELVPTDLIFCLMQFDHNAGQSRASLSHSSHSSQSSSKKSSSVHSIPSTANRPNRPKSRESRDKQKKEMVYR

CC(=O)[C@H]1CC[C@H]2[C@@H]3CCC4=CC(=O)CC[C@]4(C)[C@H]3CC[C@]12C [PROG, Progesterone]
ECmax (EC100) of channel activation ([1]; 0 mV, 30 μM free Ca2+): 10 µM
concentrations at which the channel is activated ([1]; 0 mV, 30 μM free Ca2+): greater than 0.1 μM
NPo/NPobasal ([1]; 0.01 µM PROG, min 2, single records): 1.005 and 1.018 and 0.9275 and 1.019
NPo/NPobasal ([1]; 0.01 µM PROG, min 3, single records): 1.029 and 1.009 and 1.058 and 0.9199
NPo/NPobasal ([1]; 0.01 µM PROG, min 4, single records): 1.061 and 1.114 and 0.9928 and 1.089
NPo/NPobasal of the maximal channel activity ([1]; 0.01 µM PROG, single records (Fig 1F)): 1.155 and 1 and 1.022 and 0.9918
NPo/NPobasal ([1]; 0.1 µM PROG, min 2, single records): 0.9159 and 1.034 and 0.6663 and 1.012
NPo/NPobasal ([1]; 0.1 µM PROG, min 3, single records): 0.7024 and 1.035 and 0.937 and 1.005
NPo/NPobasal ([1]; 0.1 µM PROG, min 4, single records): 0.9376 and 1.037 and 1.102 and 0.9472
NPo/NPobasal ([1]; 0.1 µM PROG, min 5, single records): 0.831 and 1.031 and 0.9946
NPo/NPobasal ([1]; 0.1 µM PROG, min 6, single records): 0.9108 and 1.004
NPo/NPobasal ([1]; 0.1 µM PROG, min 7, single records): 0.902 and 1.062
NPo/NPobasal ([1]; 0.1 µM PROG, min 8, single records): 0.9384 and 1.053
NPo/NPobasal ([1]; 0.1 µM PROG, min 9, single records): 0.9735 and 1.083
NPo/NPobasal ([1]; 0.1 µM PROG, min 10, single records): 1.131 and 1.104
NPo/NPobasal ([1]; 1 µM PROG, min 2, single records): 1.067 and 1.036 and 1.018 and 0.9862
NPo/NPobasal ([1]; 1 µM PROG, min 3, single records): 1.103 and 0.992 and 0.9993 and 1.0069
NPo/NPobasal ([1]; 1 µM PROG, min 4, single records): 0.9802 and 1.24 and 0.9671 and 1.426
NPo/NPobasal ([1]; 1 µM PROG, min 5, single records): 1.982 and 1.288 and 1.134 and 1.31
NPo/NPobasal ([1]; 1 µM PROG, min 6, single records): 1.589 and 1.543 and 1.405 and 1.4
NPo/NPobasal ([1]; 1 µM PROG, min 7, single records): 1.339 and 1.38
NPo/NPobasal ([1]; 1 µM PROG, min 8, single records): 1.498 and 1.434
NPo/NPobasal ([1]; 1 µM PROG, min 9, single records): 1.121 and 1.382
NPo/NPobasal ([1]; 1 µM PROG, min 10, single records): 1.43 and 1.377
NPo/NPobasal ([1]; 3 µM PROG, min 3, single records): 1.768 and 1.125 and 1.174
NPo/NPobasal ([1]; 3 µM PROG, min 4, single records): 2.026 and 1.046 and 1.706
NPo/NPobasal ([1]; 3 µM PROG, min 9, single records): 2.184 and 1.286
NPo/NPobasal ([1]; 3 µM PROG, min 10, single records): 2.295 and 1.4507
normalized NPo, time course Fig 2E ([1]; cbv1+beta1, time 1 min (normalisation reference), columns = single bilayers): 1
normalized NPo, time course Fig 2E ([1]; cbv1+beta1, time 2 min): 1.077 and 1.05 and 1.119 and 1.043 and 0.7556 and 0.908 and 1.053
normalized NPo, time course Fig 2E ([1]; cbv1+beta1, time 6 min): 1.387 and 1.439 and 2.22 and 2.096 and 2.632 and 2.4507 and 1.714
normalized NPo, time course Fig 2E ([1]; cbv1+beta1, time 7 min): 1.767 and 1.768 and 2.22 and 2.153 and 1.686 and 2.452 and 1.347
normalized NPo, time course Fig 2E ([1]; cbv1+beta1, time 9 min): 1.702 and 2.262 and 1.688 and 2.653 and 1.535 and 1.822
normalized NPo, time course Fig 2E ([1]; cbv1+beta1, time 10 min): 1.856 and 2.788 and 1.831 and 1.767 and 1.527
action on channel activity (NPo) ([1]; 10 μM, cis chamber, vs DMSO): readily and robustly activated
NPo/NPobasal ([1]; 100 µM PROG, min 2, single records): 0.9793 and 1.054 and 0.898
NPo/NPobasal ([1]; 100 µM PROG, min 3, single records): 1.51 and 1.02 and 1.024
NPo/NPobasal ([1]; 100 µM PROG, min 4, single records): 1.597 and 1.676 and 0.9571
NPo/NPobasal ([1]; 100 µM PROG, min 5, single records): 1.91 and 2.009 and 1.692
NPo/NPobasal ([1]; 100 µM PROG, min 6, single records): 2.017 and 2.015 and 2.955
NPo/NPobasal ([1]; 100 µM PROG, min 7, single records): 1.186 and 2.342 and 2.352
NPo/NPobasal ([1]; 100 µM PROG, min 8, single records): 1.501 and 2.445 and 2.086
NPo/NPobasal ([1]; 100 µM PROG, min 9, single records): 1.524 and 2.434
NPo/NPobasal ([1]; 100 µM PROG, min 10, single records): 1.446 and 2.664
in vivo action on MCA branches ([2]; 10 μM infused via carotid artery, both sexes): vasodilation
artery diameter, normalized to time 0 ([2]; Fig 7C, time 4, individual replicates, male mice): 1.09 (2×) and 1.035 and 1.058 and 0.9438
artery diameter, normalized to time 0 ([2]; Fig 7C, time 5, individual replicates, male mice): 1.016 and 1.1 and 0.9912 and 1.082 and 0.9491
artery diameter, normalized to time 0 ([2]; Fig 7C, time 6, individual replicates, male mice): 1.051 and 1.116 and 1.012 and 1.08 and 1.037
artery diameter, normalized to time 0 ([2]; Fig 7C, time 7, individual replicates, male mice): 1.112 and 1.049 and 1.05 and 1.107 and 1.058
artery diameter, normalized to time 0 ([2]; Fig 7C, time 8, individual replicates, male mice): 1.011 and 1.1193 and 1.034 and 1.1 and 1.095
artery diameter, normalized to time 0 ([2]; Fig 7C, time 9, individual replicates, male mice): 1.079 and 1.105 and 1.031 and 1.086 and 1.089
artery diameter, normalized to time 0 ([2]; Fig 7C, time 10, individual replicates, male mice): 1.09 and 1.053 and 0.9685 and 1.068 and 1.048
artery diameter, normalized to time 0 ([2]; Fig 7C, time 11, individual replicates, male mice): 1.108 and 1.043 and 1.018 and 1.059 and 1.07
artery diameter, normalized to time 0 ([2]; Fig 7C, time 12, individual replicates, male mice): 0.9973 and 1.002 and 1.105 and 1.107 and 1.084
artery diameter, normalized to time 0 ([2]; Fig 7C, time 13, individual replicates, male mice): 1.13 and 1.0049 and 1.077 and 1.135 and 1.0321
artery diameter, normalized to time 0 ([2]; Fig 7D, time 4, individual replicates, female mice): 1.137 and 1.058 and 0.95 and 1.071 and 1.184
artery diameter, normalized to time 0 ([2]; Fig 7D, time 5, individual replicates, female mice): 0.9598 and 1.079 and 0.97 and 0.997 and 1.229
artery diameter, normalized to time 0 ([2]; Fig 7D, time 6, individual replicates, female mice): 1.069 and 1.14 and 1.01 and 1.116 and 1.159
artery diameter, normalized to time 0 ([2]; Fig 7D, time 7, individual replicates, female mice): 1.131 and 1.157 and 1.04 and 1.012 and 1.149
artery diameter, normalized to time 0 ([2]; Fig 7D, time 8, individual replicates, female mice): 1.128 and 1.058 and 1.05 and 1.074 and 1.104
artery diameter, normalized to time 0 ([2]; Fig 7D, time 9, individual replicates, female mice): 1.1 and 1.083 and 1.05 and 1.009 and 1.17
artery diameter, normalized to time 0 ([2]; Fig 7D, time 10, individual replicates, female mice): 1.137 and 1.135 and 1.10 and 1.112 and 1.096
artery diameter, normalized to time 0 ([2]; Fig 7D, time 11, individual replicates, female mice): 1.0383 and 1.014 and 1.12 and 1.119 and 1.133
artery diameter, normalized to time 0 ([2]; Fig 7D, time 12, individual replicates, female mice): 1.097 and 0.9908 and 1.08 and 1.129 and 1.16
artery diameter, normalized to time 0 ([2]; Fig 7D, time 13, individual replicates, female mice): 1.0971 and 1.058 and 1.25 and 1.0807 and 1.024
artery diameter, normalized (PROG vs oxime comparison) ([2]; Fig 7F, same values as Fig 7D time 7, individual replicates, female mice): 1.043

— PMC10636063, “Progesterone activation of β1-containing BK channels involves two binding sites” (Nature Communications, 2023)
